Experimental data reported in patent US9624180B2, “Squaric derivatives for the treatment of hepatitis C” (priority 2013, dated 2017).
Like-named read-outs stand apart in the source and are kept apart here.

Test system: HCV pseudoparticles (genotype 1a HCV E1 and E2 envelope, H77C isolate)
Assay: HCV pseudoparticle infection assay (luciferase reporter, entry into Huh7 cells)
Assay type: cell-based, HCV genotype 1a
Conditions: Hepatitis C virus, Huh-7, 48 h
[1] = read-out: EC50 (1a, nM), genotype 1a HCV pseudoparticles, Huh7 cells, luciferase 2 days after infection, average of duplicates
[2] = read-out: EC50 (1a, nM), genotype 1a HCV pseudoparticles, Huh7 cells, luciferase 2 days after infection, class symbol

Compound | EC50 [1] [nM] | EC50 [2] [nM]
COC(=O)[C@H](CNc1c(OC)c(=O)c1=O)NC(=O)c1ccc(Nc2nc(NC3(c4ccc(Cl)cc4)CC3)nc(OCC(F)(F)F)n2)cc1 [Compound 1001, (S)-methyl 2-(4-(4-(1-(4-chlorophenyl)cyclopropylamino)-6-(2,2,2-trifluoroethoxy)-1,3,5-triazin-2-ylamino)benzamido)-3-(2-methoxy-3,4-dioxocyclobut-1-enylamino)propanoate] | 117 | 10 to 1000
CCOc1c(NC[C@H](NC(=O)c2ccc(Nc3nc(NC4(c5ccc(Cl)cc5)CC4)nc(OCC(F)(F)F)n3)cc2)C(=O)OC)c(=O)c1=O [Compound 1002, (S)-methyl 2-(4-(4-(1-(4-chlorophenyl)cyclopropylamino)-6-(2,2,2-trifluoroethoxy)-1,3,5-triazin-2-ylamino)benzamido)-3-(2-ethoxy-3,4-dioxocyclobut-1-enylamino)propanoate] | – | 10 to 1000
COC(=O)[C@H](CNc1c(O)c(=O)c1=O)NC(=O)c1ccc(Nc2nc(NC3(c4ccc(Cl)cc4)CC3)nc(OCC(F)(F)F)n2)cc1 [Compound 1003, (S)-methyl 2-(4-(4-(1-(4-chlorophenyl)cyclopropylamino)-6-(2,2,2-trifluoroethoxy)-1,3,5-triazin-2-ylamino)benzamido)-3-(2-hydroxy-3,4-dioxocyclobut-1-enylamino)propanoate] | 47 | 10 to 1000
CCOc1c(NC[C@H](NC(=O)c2ccc(Nc3nc(NC4(c5ccc(Cl)cc5)CC4)nc(OCC(F)(F)F)n3)cc2)C(=O)O)c(=O)c1=O [Compound 1004, (S)-2-(4-(4-(1-(4-chlorophenyl)cyclopropylamino)-6-(2,2,2-trifluoroethoxy)-1,3,5-triazin-2-ylamino)benzamido)-3-(2-ethoxy-3,4-dioxocyclobut-1-enylamino)propanoic acid] | – | 10 to 1000
CCOc1c(NCC(C)(C)CNC(=O)c2ccc(Nc3nc(NC4(c5ccc(Cl)cc5)CC4)nc(OCC(F)(F)F)n3)cc2)c(=O)c1=O [Compound 1005, 4-((4-((1-(4-chlorophenyl)cyclopropyl)amino)-6-(2,2,2-trifluoroethoxy)-1,3,5-triazin-2-yl)amino)-N-(3-((2-ethoxy-3,4-dioxocyclobut-1-en-1-yl)amino)-2,2-dimethylpropyl)benzamide] | – | 0.01 to 10
CC(C)(CNC(=O)c1ccc(Nc2nc(NC3(c4ccc(Cl)cc4)CC3)nc(OCC(F)(F)F)n2)cc1)CNc1c(O)c(=O)c1=O [Compound 1006] | 0.52 | 0.01 to 10
CC(C)(CNC(=O)c1ccc(Nc2nc(NC3(c4ccc(Cl)cc4)CC3)nc(OCC(F)(F)F)n2)cc1)CNc1c(NCC2CC2)c(=O)c1=O [Compound 1007] | – | 0.01 to 10
CC(C)(CNC(=O)c1ccc(Nc2nc(NC3(c4ccc(Cl)cc4)CC3)nc(OCC(F)(F)F)n2)cc1)CNc1c(NCc2ccc(F)cc2F)c(=O)c1=O [Compound 1008] | 0.05 | 0.01 to 10
CC(C)(CNC(=O)c1ccc(Nc2nc(NC3(c4ccc(Cl)cc4)CC3)nc(OCC(F)(F)F)n2)cc1)CNc1c(NC2CCCCCC2)c(=O)c1=O [Compound 1009] | – | 0.01 to 10
CC(C)(CNC(=O)c1ccc(Nc2nc(NC3(c4ccc(Cl)cc4)CC3)nc(OCC(F)(F)F)n2)cc1)CNc1c(NCC2(CN3CCCC3)CC2)c(=O)c1=O [Compound 1010] | – | 0.01 to 10
O=C(N[C@@H](CCNc1c(NCC2CC2)c(=O)c1=O)C(=O)NCC1CC1)c1ccc(Nc2nc(NC3(c4ccc(Cl)cc4)CC3)nc(OCC(F)(F)F)n2)cc1 [Compound 1011] | 5.98 | 0.01 to 10
O=C(N[C@@H](CCNc1c(NC2CCCCCCC2)c(=O)c1=O)C(=O)O)c1ccc(Nc2nc(NC3(c4ccc(Cl)cc4)CC3)nc(OCC(F)(F)F)n2)cc1 [Compound 1012] | – | 0.01 to 10
CC(C)(CNC(=O)c1ccc(Nc2nc(NC3(c4ccc(Cl)cc4)CC3)nc(OCC(F)(F)F)n2)cc1)CNc1c(Nc2ccccc2)c(=O)c1=O [Compound 1013] | – | 0.01 to 10
O=C(N[C@@H](CCNc1c(Nc2ccccc2)c(=O)c1=O)C(=O)Nc1ccccc1)c1ccc(Nc2nc(NC3(c4ccc(Cl)cc4)CC3)nc(OCC(F)(F)F)n2)cc1 [Compound 1014] | – | 10 to 1000
O=C(N[C@@H](CCNc1c(NCC2(Cn3ccnc3)CC2)c(=O)c1=O)C(=O)O)c1ccc(Nc2nc(NC3(c4ccc(Cl)cc4)CC3)nc(OCC(F)(F)F)n2)cc1 [Compound 1015] | 6.55 | 0.01 to 10
O=C(N[C@@H](CCNc1c(Nc2ccccc2)c(=O)c1=O)C(=O)O)c1ccc(Nc2nc(NC3(c4ccc(Cl)cc4)CC3)nc(OCC(F)(F)F)n2)cc1 [Compound 1016] | – | 0.01 to 10
O=C(N[C@@H](CCNc1c(N[C@@H]2C[C@H]3CC[C@@H]2C3)c(=O)c1=O)C(=O)O)c1ccc(Nc2nc(NC3(c4ccc(Cl)cc4)CC3)nc(OCC(F)(F)F)n2)cc1 [Compound 1017] | – | 0.01 to 10
O=C(N[C@@H](CCNc1c(NC2CCCCCC2)c(=O)c1=O)C(=O)NC1CCCCCC1)c1ccc(Nc2nc(NC3(c4ccc(Cl)cc4)CC3)nc(OCC(F)(F)F)n2)cc1 [Compound 1018] | – | 0.01 to 10
O=C(N[C@@H](CCNc1c(N[C@@H]2C[C@H]3CC[C@@H]2C3)c(=O)c1=O)C(=O)N[C@@H]1C[C@H]2CC[C@@H]1C2)c1ccc(Nc2nc(NC3(c4ccc(Cl)cc4)CC3)nc(OCC(F)(F)F)n2)cc1 [Compound 1019] | – | 10 to 1000
O=C(N[C@@H](CCNc1c(NCc2ccc(F)cc2F)c(=O)c1=O)C(=O)NCc1ccc(F)cc1F)c1ccc(Nc2nc(NC3(c4ccc(Cl)cc4)CC3)nc(OCC(F)(F)F)n2)cc1 [Compound 1020] | – | 0.01 to 10
CCOC(=O)[C@H](CCNc1c(NC2CCCCCC2)c(=O)c1=O)NC(=O)c1ccc(Nc2nc(NC3(c4ccc(Cl)cc4)CC3)nc(OCC(F)(F)F)n2)cc1 [Compound 1021] | 1.24 | 0.01 to 10
